Source: US20190292174A1, “MICROBIOCIDAL OXADIAZOLE DERIVATIVES” (SYNGENTA PARTICIPATIONS AG, priority 2016, published 2019)

Assays:
Phakopsora pachyrhizi = Phakopsora pachyrhizi / soybean / leaf disc preventative (Asian soybean rust); assay type: in vivo; settings: foliar, soybean leaf disks, compared to untreated control
Protocol: Leaf disks or leaf segments of various plant species are cut from plants grown in a greenhouse. The cut leaf disks or segments are placed in multiwell plates (24-well format) onto water agar. The leaf disks are sprayed with a test solution before (preventative) or after (curative) inoculation. Compounds to be tested are prepared as DMSO solutions (max. 10 mg/ml) which are diluted to the appropriate concentration with 0.025% Tween20 just before spraying. The inoculated leaf disks or segments are incubated under defined conditions (temperature, relative humidity, light, etc.) according to the respective test system. A single evaluation of disease level is carried out 3 to 14 days after inoculation, depending on the pathosystem. Percent disease control relative to the untreated check leaf disks or segments is then calculated. Soybean leaf disks are placed on water agar in multiwell plates (24-well format) and sprayed with the formulated test compound diluted in water. One day after application leaf discs are inoculated by spraying a spore suspension on the lower leaf surface. After an incubation period in a climate cabinet of 24-36 hours in darkness at 20° C., and 75% rh leaf disc are kept at 20° C. with 12 h light/day and 75% rh. The activity of a compound is assessed as percent disease control compared to untreated when an appropriate level of disease damage appears in untreated check leaf disks (12-14 days after application).

[1] = tested on: Puccinia recondita f. sp. tritici; assay: Puccinia recondita f. sp. tritici / wheat / leaf disc curative (brown rust); assay type: in vivo; settings: foliar, 24 h, wheat leaf segments cv. Kanzler, curative (applied 1 day after inoculation), compared to untreated control, read-out: control of Puccinia recondita f. sp. tritic
Protocol: Leaf disks or leaf segments of various plant species are cut from plants grown in a greenhouse. The cut leaf disks or segments are placed in multiwell plates (24-well format) onto water agar. The leaf disks are sprayed with a test solution before (preventative) or after (curative) inoculation. Compounds to be tested are prepared as DMSO solutions (max. 10 mg/ml) which are diluted to the appropriate concentration with 0.025% Tween20 just before spraying. The inoculated leaf disks or segments are incubated under defined conditions (temperature, relative humidity, light, etc.) according to the respective test system. A single evaluation of disease level is carried out 3 to 14 days after inoculation, depending on the pathosystem. Percent disease control relative to the untreated check leaf disks or segments is then calculated. Wheat leaf segments cv. Kanzler are placed on agar in multiwell plates (24-well format). The leaf segments are inoculated with a spore suspension of the fungus. Plates are stored in darkness at 19° C., and 75% rh. The formulated test compound diluted in water is applied 1 day after inoculation. The leaf segments are incubated at 19° C., and 75% rh under a light regime of 12 h light/12 h darkness in a climate cabinet and the activity of a compound is assessed as percent disease control compared to untreated when an appropriate level of disease damage appears in untreated check leaf segments (6-8 days after application).

[2] = tested on: Glomerella lagenarium (Colletotrichum lagenarium); assay: Glomerella lagenarium (Colletotrichum lagenarium) liquid culture / cucumber / preventative (anthracnose); assay type: cell-based; settings: Colletotrichum orbiculare, liquid culture (PDB), growth inhibition measured photometrically 3-4 days after application, compared to untreated control
Protocol: […] fragments or conidia suspensions of a fungus prepared either freshly from liquid cultures of the fungus or from cryogenic storage, are directly mixed into nutrient broth. DMSO solutions of the test compound (max. 10 mg/ml) are diluted with 0.025% Tween20 by a factor of 50 and 10 μl of this solution is pipetted into a microtiter plate (96-well format). The nutrient broth containing the fungal spores/mycelia fragments is then added to give an end concentration of the tested compound. The test plates are incubated in the dark at 24° C., and 96% relative humidity. The inhibition of fungal growth is determined photometrically after 2 to 7 days, depending on the pathosystem, and percent antifungal activity relative to the untreated check is calculated. Conidia of the fungus from cryogenic storage are directly mixed into nutrient broth (PDB potato dextrose broth). Alter placing a (DMSO) solution of test compound into a microtiter plate (96-well format), the nutrient broth containing the fungal spores is added. The test plates are incubated at 24° C., and the inhibition of growth is measured photometrically 3-4 days after application.

[3] = tested on: Puccinia recondita f. sp. tritici; assay: Puccinia recondita f. sp. tritici / wheat / leaf disc preventative (brown rust); assay type: in vivo; settings: foliar, wheat leaf segments cv. Kanzler, preventative (inoculated 1 day after application), compared to untreated control
Protocol: Leaf disks or leaf segments of various plant species are cut from plants grown in a greenhouse. The cut leaf disks or segments are placed in multiwell plates (24-well format) onto water agar. The leaf disks are sprayed with a test solution before (preventative) or after (curative) inoculation. Compounds to be tested are prepared as DMSO solutions (max. 10 mg/ml) which are diluted to the appropriate concentration with 0.025% Tween20 just before spraying. The inoculated leaf disks or segments are incubated under defined conditions (temperature, relative humidity, light, etc.) according to the respective test system. A single evaluation of disease level is carried out 3 to 14 days after inoculation, depending on the pathosystem. Percent disease control relative to the untreated check leaf disks or segments is then calculated. Wheat leaf segments cv. Kanzler are placed on agar in multiwell plates (24-well format) and sprayed with the formulated test compound diluted in water. The leaf disks are inoculated with a spore suspension of the fungus 1 day after application. The inoculated leaf segments are incubated at 19° C. and 75% rh under a light regime of 12 h light/12 h darkness in a climate cabinet and the activity of a compound is assessed as percent disease control compared to untreated when an appropriate level of disease damage appears in untreated check leaf segments (7-9 days after application).

O=C(NN1CCCCC1=O)c1ccc(-c2noc(C(F)(F)F)n2)c(F)c1 [Compound 1.24, 3-fluoro-N-(2-oxo-1-piperidyl)-4-[5-(trifluoromethyl)-1,2,4-oxadiazol-3-yl]benzamide]
pest or weed control at 200 ppm (Phakopsora pachyrhizi): ≥ 80% | melting point: 180 to 200 °C | pest or weed control at 200 ppm [1]: ≥ 80% | inhibition of growth at 20 ppm [2]: ≥ 80% | pest or weed control at 200 ppm [3]: ≥ 80%
